The target in one assay is T1, TLR9 (Homo sapiens, UniProt Q9NR96).
T1 construct: lymphocytes, monocytes and dendritic cells that express TLR7, TLR8 and TLR9; endogenous in cells; host or cells: human PBMCs from healthy donors
T1 sequence (Q9NR96 26-1032): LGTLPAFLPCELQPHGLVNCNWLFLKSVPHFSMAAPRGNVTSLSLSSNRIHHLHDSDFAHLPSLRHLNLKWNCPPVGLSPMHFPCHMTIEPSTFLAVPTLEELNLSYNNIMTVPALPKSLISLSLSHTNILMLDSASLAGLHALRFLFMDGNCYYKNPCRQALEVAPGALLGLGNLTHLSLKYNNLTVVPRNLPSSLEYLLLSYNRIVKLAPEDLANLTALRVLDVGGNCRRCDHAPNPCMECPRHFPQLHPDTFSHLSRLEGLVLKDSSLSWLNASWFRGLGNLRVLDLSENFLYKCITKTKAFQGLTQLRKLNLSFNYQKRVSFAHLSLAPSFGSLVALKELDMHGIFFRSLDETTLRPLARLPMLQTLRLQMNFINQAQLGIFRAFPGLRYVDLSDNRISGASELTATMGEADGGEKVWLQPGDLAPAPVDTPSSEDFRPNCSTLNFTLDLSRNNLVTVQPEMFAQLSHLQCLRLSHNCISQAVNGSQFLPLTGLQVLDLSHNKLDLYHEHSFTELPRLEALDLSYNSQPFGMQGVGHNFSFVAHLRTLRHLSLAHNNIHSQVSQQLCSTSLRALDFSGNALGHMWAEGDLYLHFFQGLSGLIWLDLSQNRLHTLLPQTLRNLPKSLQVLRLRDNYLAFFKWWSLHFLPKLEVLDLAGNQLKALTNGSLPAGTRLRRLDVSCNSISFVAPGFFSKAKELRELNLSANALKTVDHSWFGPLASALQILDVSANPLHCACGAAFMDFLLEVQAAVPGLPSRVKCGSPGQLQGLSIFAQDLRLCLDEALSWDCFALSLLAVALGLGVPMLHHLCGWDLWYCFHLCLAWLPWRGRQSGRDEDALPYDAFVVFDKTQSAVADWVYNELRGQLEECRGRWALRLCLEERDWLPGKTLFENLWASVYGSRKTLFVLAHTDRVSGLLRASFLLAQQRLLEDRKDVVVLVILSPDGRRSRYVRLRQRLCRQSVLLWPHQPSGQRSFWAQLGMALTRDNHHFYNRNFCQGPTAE
The experiment in a line: Human PBMC cell-based assay, TLR9 agonist ODN-2216 stimulation, cytokine (IL-6 and IFNα) readout. The following applies: human PBMCs, ODN-2216 3 μM, 6 hours; Table 26; read-out: TLR-9 EC50. From the text:
(§1) Human peripheral blood mononuclear cells (PBMCs) consist of lymphocytes, monocytes and dendritic cells that express TLR7, TLR8 and TLR9. These cells respond to TLR7, TLR8 and TLR9 ligand stimulation and produce cytokines and chemokines in vitro and in vivo. Human PBMCs are therefore suitable to be used in a cell-based assay to assess the in vitro potency of a TLR 7, 8, and/or 9 antagonist. The result is expected to be more translatable to the pharmacodynamics response in vivo than cell line-based assays.
(§2) Cryopreserved human PBMCs from healthy donors were thawed and resuspended in RPMI-1640 media with L-glutamine (Corning) supplemented with 10% Fetal Bovine Serum (Hyclone) and 1X Penicillin-Streptomycin (Corning). After counting, the cell density was adjusted to 2 million cells/ml and incubated for 1 hour at 37° C., 5% CO2 for recovery. Following the recovery, the cells were plated by adding 50p per well (100,000 cells) to 384-well cell culture plates (Greiner) containing 250nl of test antagonists in 100% DMSO per well, in a 10 points dose response in quadruplicates. PBMCs were incubated in the presence of test antagonists for one hour at 37° C., 5% CO2 before being stimulated with a TLR7 or TLR9 agonist. GS-986 (Gilead Sciences) was used as the TLR7 agonist at a final concentration of 400 nM. ODN-2216 (InvivoGen) was used as the TLR9 agonist at a final concentration of 3μM. PBMCs were incubated in the presence of the test antagonist and the TLR7 (or TLR9) agonist for an additional 6 hours at 37° C., 5% CO2. At the end of the incubation, the cell culture plates were centrifuged at 500 g for 5 min, and the cell culture supernatant was collected. The level of cytokines (IL-6 and IFNα) in the supernatant was measured by electrochemiluminescence immunoassays (Mesoscale Discovery) following manufacturer's recommended protocols. The level of cytokine measured was plotted against the test antagonist concentration and fitted to a sigmoidal function to determine the EC50, which are shown below in Table 26.

A further assay addresses T2, TLR7 (Homo sapiens, UniProt Q9NYK1).
T2 construct: lymphocytes, monocytes and dendritic cells that express TLR7, TLR8 and TLR9; endogenous in cells; host or cells: human PBMCs from healthy donors
T2 sequence (Q9NYK1 27-1049): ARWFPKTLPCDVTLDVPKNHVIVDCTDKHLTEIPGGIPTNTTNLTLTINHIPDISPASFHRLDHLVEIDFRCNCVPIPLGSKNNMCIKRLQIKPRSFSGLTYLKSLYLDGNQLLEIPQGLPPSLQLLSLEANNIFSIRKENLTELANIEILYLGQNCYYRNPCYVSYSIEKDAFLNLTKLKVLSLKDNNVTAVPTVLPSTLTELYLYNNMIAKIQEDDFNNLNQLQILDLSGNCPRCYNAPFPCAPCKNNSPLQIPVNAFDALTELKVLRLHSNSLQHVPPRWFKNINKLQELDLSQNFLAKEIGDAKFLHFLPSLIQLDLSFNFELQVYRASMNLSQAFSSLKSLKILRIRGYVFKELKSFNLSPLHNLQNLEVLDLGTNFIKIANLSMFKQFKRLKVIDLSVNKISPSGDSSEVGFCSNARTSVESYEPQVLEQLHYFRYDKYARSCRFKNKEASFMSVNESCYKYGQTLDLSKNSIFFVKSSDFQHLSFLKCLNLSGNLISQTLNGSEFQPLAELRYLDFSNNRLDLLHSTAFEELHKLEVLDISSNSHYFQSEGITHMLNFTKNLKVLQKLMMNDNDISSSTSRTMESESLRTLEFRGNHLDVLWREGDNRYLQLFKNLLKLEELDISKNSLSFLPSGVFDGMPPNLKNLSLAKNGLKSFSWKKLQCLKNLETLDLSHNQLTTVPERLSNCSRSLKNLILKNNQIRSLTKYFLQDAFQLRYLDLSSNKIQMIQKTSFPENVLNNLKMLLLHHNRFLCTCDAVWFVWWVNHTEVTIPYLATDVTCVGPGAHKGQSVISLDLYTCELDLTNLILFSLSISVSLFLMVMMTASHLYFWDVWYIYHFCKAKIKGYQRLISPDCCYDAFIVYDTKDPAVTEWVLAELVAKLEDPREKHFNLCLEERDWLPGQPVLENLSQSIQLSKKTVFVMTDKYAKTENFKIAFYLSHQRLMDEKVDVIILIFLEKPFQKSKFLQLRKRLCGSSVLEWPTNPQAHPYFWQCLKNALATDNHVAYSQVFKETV
The experiment in a line: Human PBMC cell-based assay, TLR7 agonist GS-986 stimulation, cytokine (IL-6 and IFNα) readout. As to conditions: human PBMCs, GS-986 400 nM, 6 hours; Table 26; read-out: TLR-7 EC50.
Excerpt: as §1, §2

We go through 22 compounds from patent US20250002471A1 (Gilead Sciences, Inc., priority 2020, published 2025).

For orientation: EC50 means the concentration giving half of the maximal effect. Regarding `Cc1cc(-c2[nH]c3cc(-c4nc(N5CCNCC5)no4)ccc3c2C)cc(C)n1` [Example 188, 5-[2-(2,6-dimethyl-4-pyridyl)-3-methyl-1H-indol-6-yl]-3-piperazin-1-yl-1,2,4-oxadiazole], the figures for the EC50 on TLR9 and on TLR7 were 175 nM and 270 nM, respectively. On to `CNC(=O)CN1CCN(c2ccc(-c3ccc4c(C)c(-c5cc(C)nc(C)c5)[nH]c4c3)cn2)CC1` [Example 113, 2-(4-(5-(2-(2,6-dimethylpyridin-4-yl)-3-methyl-1H-indol-6-yl)pyridin-2-yl)piperazin-1-yl)-N-methylacetamide], for which the EC50 at TLR9 was 123 nM; at TLR7 it was 68.8 nM. For `Cc1cc(-c2[nH]c3cc(-c4nc(C5CCNCC5)cs4)ccc3c2C)cc(C)n1` [Example 186, 2-(2-(2,6-dimethylpyridin-4-yl)-3-methyl-1H-indol-6-yl)-4-(piperidin-4-yl)thiazole] the same measures were 225 nM and 121 nM. For `Cc1cc(-c2[nH]c3cc(-c4nnc(C5CCNCC5)o4)ccc3c2C)cc(C)n1` [Example 190, 2-[2-(2,6-dimethyl-4-pyridyl)-3-methyl-1H-indol-6-yl]-5-(4-piperidyl)-1,3,4-oxadiazole] the same measures were 55 nM and 16 nM. Turning to `Cc1cc(-c2[nH]c3cc(-c4csc(N5CCNCC5)n4)ccc3c2C)cc(C)n1` [Example 146, 4-[2-(2,6-dimethyl-4-pyridyl)-3-methyl-1H-indol-6-yl]-2-piperazin-1-yl-thiazole], the EC50 is 37.4 nM on TLR9 and 119 nM on TLR7. For `Cc1c(-c2cc(C#N)c(=O)n(C)c2)[nH]c2cc(-c3ccc(N4CCNCC4)nc3)ccc12` [Example 93], the EC50 amounted to 909 nM on TLR9 and 205 nM on TLR7.

Consider `Cc1cc(-c2[nH]c3cc(-c4ccc5cccnc5c4)ccc3c2C)cc(C)n1` [Example 47], for which the EC50 on TLR9 was determined as 400 nM; at TLR7, 652 nM.

For the compound `Cc1cc(-c2[nH]c3cc(-c4ccc(N5CCC(NCCO)CC5)nc4)ccc3c2C)cc(C)n1` [Example 131, 2-((1-(5-(2-(2,6-dimethylpyridin-4-yl)-3-methyl-1H-indol-6-yl)pyridin-2-yl)piperidin-4-yl)amino)ethan-1-ol], the figures for the EC50 at TLR9 and at TLR7 were 14.6 nM and 17.9 nM, respectively.

For the compound `Cc1cncc(-c2[nH]c3cc(-c4ccc(N5CCNCC5)nc4)ccc3c2C)c1C` [Example 86], the EC50 at TLR9 came out at 1430 nM; on TLR7, 2670 nM. For `Cc1cc(-c2[nH]c3cc(-c4cn(C5CCNCC5)nc4C)ccc3c2C)cc(C)n1` [Example 11] the same measures were 228 nM and 345 nM. As to `Cc1cc(-c2[nH]c3cc(-c4ccc(N5CC[N+](CCN(C)C)(CCN(C)C)CC5)nc4)ccc3c2C)cc(C)n1` [Example 115, 1,1-bis(2-(dimethylamino)ethyl)-4-(5-(2-(2,6-dimethylpyridin-4-yl)-3-methyl-1H-indol-6-yl)pyridin-2-yl)piperazin-1-ium], the EC50 on TLR9 worked out at 189 nM; at TLR7, 394 nM. For `Cc1cc(-c2[nH]c3cc(C(=O)N[C@H]4CCCNC4)ccc3c2C)cc(C)n1` [Example 179] the same measures were 211 nM and 334 nM.

In the case of `Cc1cc(-c2[nH]c3cc(-c4ccc(N5CCC(N)CC5)nc4)ccc3c2C2CC2)cc(C)n1` [Example 104, 1-(5-(3-cyclopropyl-2-(2,6-dimethylpyridin-4-yl)-1H-indol-6-yl)pyridin-2-yl)piperidin-4-amine], the 50% effective concentration (EC50) on TLR9 came out at 44.1 nM; at TLR7 it was 8.3 nM.

As to `Cc1cc(-c2[nH]c3cc(C4CCNCC4)ccc3c2C(C)C)cc(C)n1` [Example 50, 2-(2,6-dimethylpyridin-4-yl)-3-isopropyl-6-(piperidin-4-yl)-1H-indole], the values for the EC50 at TLR9 and on TLR7 were 784 nM and 222 nM, respectively. As to `Cc1c(-c2cc(C)c3ncnn3c2)[nH]c2cc(-c3nc4ccccc4[nH]3)ccc12` [Example 193, 6-[6-(1H-benzimidazol-2-yl)-3-methyl-1H-indol-2-yl]-8-methyl-[1,2,4]triazolo[1,5-a]pyridine], at TLR7, the EC50 was 483 nM. Still for that read-out and setting: as for `Cc1c(-c2cc(C)c3ncnn3c2)[nH]c2cc(-c3nc4ccccc4n3C)ccc12` [Example 194], the figure is 631 nM; as for `Cc1c(-c2cc(C)c3ncnn3c2)[nH]c2cc(-c3cnc4c(c3)CNCC4)ccc12` [Example 170], 1.37 nM.

For the compound `Cc1c(-c2cc(C)c3ncnn3c2)[nH]c2cc(-c3ccc4nc([C@H]5N[C@@H]6CC[C@H]5C6)[nH]c4c3)ccc12` [Example 171], the EC50 on TLR7 amounted to 0.11 nM. `CCc1c(-c2cc(C)c3ncnn3c2)[nH]c2cc(-c3ccc(N4CCN(CC(N)=O)CC4)nc3)ccc12` [Example 177, 2-(4-(5-(3-ethyl-2-(8-methyl-[1,2,4]triazolo[1,5-a]pyridin-6-yl)-1H-indol-6-yl)pyridin-2-yl)piperazin-1-yl)acetamide]: at TLR7, the EC50 was determined as 1.66 nM.

Take `Cc1c(-c2cc(C)c3ncnn3c2)[nH]c2cc(-c3ccc4c(c3)ncn4C3CC4CC3CN4)ccc12` (stereo not drawn) [Example 176]: at TLR7, the EC50 was found to be 1.01 nM. On to `Cc1cc(-c2[nH]c3cc(-c4ccc5c(c4)CCCN5)ccc3c2C)cc(C)n1` [Example 43], for which the EC50 on TLR9 was found to be 1340 nM. `Cc1cc(-c2[nH]c3cc(-c4ccc5nc([C@@H]6N[C@H]7CC[C@@H]6C7)[nH]c5c4)ccc3c2C)cc(C)n1` [Example 195, 2-[(1S,3R,4R)-2-azabicyclo[2.2.1]heptan-3-yl]-6-[2-(2,6-dimethyl-4-pyridyl)-3-methyl-1H-indol-6-yl]-1H-benzimidazole]: the EC50 at TLR7 came out at 4.48 nM.
